The numbers were not newly measured in US20140230256A1, “HAND HELD DEVICE” (The Gillette Company, priority 2013, published 2014), which cites them from elsewhere.

SMILES strings stand for the structures.

For this series the following is noted: organism not stated.

With `CCCCCCCCn1sc(Cl)c(Cl)c1=O` [4,5-dichloro-2-n-octyl-4-isothiazolin-3-one], the MIC result is listed as “about 50 ppm”.
